Results from PMC5378956, “Inhibition of delta-secretase improves cognitive functions in mouse models of Alzheimer's disease” (Nature Communications, 2017).

How the values were obtained:
CYP1A2 = molecular target: T1, CYP1A2 (Homo sapiens, UniProt P05177); assay: CYP inhibition screening in microsomes; conditions: pH 7.4
T1 sequence (P05177 1-516): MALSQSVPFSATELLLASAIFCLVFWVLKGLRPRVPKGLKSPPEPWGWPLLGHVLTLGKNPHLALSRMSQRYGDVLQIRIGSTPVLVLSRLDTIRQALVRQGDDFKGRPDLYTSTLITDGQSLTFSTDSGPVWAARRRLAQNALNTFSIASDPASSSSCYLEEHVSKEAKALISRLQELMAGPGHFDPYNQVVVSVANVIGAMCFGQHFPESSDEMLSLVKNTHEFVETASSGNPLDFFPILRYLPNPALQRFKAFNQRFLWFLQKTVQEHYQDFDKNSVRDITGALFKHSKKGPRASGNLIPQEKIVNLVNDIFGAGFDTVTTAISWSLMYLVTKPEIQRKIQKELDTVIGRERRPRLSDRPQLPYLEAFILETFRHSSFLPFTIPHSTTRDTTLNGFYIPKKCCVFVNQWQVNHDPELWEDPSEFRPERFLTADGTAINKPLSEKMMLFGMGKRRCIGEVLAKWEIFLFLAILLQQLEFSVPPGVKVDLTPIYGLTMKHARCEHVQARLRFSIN

CYP2C9 = CYP2C9 (Homo sapiens, UniProt P11712); assay: CYP inhibition screening in microsomes; conditions: pH 7.4
Chain of CYP2C9 (P11712 whole entry): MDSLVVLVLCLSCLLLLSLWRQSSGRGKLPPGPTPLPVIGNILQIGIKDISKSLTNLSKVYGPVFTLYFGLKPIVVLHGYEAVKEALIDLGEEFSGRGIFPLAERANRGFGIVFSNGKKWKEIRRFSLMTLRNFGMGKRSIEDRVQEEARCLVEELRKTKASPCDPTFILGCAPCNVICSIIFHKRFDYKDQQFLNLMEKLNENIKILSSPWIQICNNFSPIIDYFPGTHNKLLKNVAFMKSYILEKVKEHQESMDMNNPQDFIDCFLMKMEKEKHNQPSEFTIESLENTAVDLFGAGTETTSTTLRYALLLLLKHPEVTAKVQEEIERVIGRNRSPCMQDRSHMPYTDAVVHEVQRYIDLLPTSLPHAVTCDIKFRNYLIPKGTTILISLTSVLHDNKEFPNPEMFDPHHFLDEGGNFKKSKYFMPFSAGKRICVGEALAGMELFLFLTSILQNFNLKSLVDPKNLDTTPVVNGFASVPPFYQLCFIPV

cathepsin-S = molecular target: T2, cathepsin-S (Homo sapiens, UniProt P25774); assay: IC50 assay with recombinant cathepsin-S; type: biochemical; conditions: for IC50: mean±s.d.
T2 construct: purchased Athens Research and Technology (Athens, GA)
T2 sequence (P25774 115-331, species assumed): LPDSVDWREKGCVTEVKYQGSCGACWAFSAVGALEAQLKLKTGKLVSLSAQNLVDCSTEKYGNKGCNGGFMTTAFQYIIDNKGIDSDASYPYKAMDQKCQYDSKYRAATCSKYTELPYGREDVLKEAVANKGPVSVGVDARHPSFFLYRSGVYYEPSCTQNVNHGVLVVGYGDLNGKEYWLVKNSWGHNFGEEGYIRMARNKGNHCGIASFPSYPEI
Experimental: Cathepsin-S – 100 nM enzyme was pre-incubated with inhibitor in assay buffer (100 mM NaH2PO4 pH 6.5, 100 mM NaCl) for 10 min at 37 °C. The reaction was initiated on addition of 25 μM substrate (Boc-Val-Leu-Lys-AMC (Bachem).
(§1) To determine the IC50 values of the compounds towards δ-secretase, cathepsin-S, cathepsin-L, caspase-3 and caspase-8, purified recombinant enzyme was incubated in appropriate assay buffers in the presence of increasing concentrations of inhibitors. The formation of fluorescent product was monitored in duplicate reactions and the data were fit to appropriate equations to calculate the IC50 values.

CYP2D6 = CYP2D6 (Homo sapiens, UniProt P10635); assay: CYP inhibition screening in microsomes; conditions: pH 7.4
Chain of CYP2D6 (P10635 whole entry): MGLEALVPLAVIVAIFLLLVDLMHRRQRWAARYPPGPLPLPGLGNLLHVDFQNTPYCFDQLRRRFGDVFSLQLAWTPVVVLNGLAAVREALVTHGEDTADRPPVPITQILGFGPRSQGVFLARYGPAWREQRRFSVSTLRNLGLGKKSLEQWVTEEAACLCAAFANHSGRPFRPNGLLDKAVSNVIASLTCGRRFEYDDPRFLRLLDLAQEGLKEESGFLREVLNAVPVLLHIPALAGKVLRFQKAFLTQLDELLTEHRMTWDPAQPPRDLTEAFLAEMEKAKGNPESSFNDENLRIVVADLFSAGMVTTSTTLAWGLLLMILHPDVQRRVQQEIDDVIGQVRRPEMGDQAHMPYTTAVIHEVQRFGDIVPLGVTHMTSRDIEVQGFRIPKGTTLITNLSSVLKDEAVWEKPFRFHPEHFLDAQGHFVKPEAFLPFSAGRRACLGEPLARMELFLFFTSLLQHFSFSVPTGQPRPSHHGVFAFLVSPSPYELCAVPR

caspase-8 = molecular target: T3, caspase-8 (Homo sapiens, UniProt Q14790); assay: IC50 assay with recombinant caspase-8; type: biochemical; conditions: for IC50: mean±s.d.
T3 construct: purchased Millipore (Billerica, MA)
T3 sequence (Q14790 217-374 limits assumed, species assumed): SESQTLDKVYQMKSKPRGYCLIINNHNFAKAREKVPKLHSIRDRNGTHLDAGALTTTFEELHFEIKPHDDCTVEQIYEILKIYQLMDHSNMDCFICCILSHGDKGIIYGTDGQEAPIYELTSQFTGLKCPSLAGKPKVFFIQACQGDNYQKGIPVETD
T3 sequence (Q14790 385-479 limits assumed, species assumed): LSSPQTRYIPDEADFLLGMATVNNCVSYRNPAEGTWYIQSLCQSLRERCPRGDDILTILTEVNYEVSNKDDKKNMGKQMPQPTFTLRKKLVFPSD
Experimental: (§2) Caspase-3 and 8 – The enzyme was pre-incubated with inhibitor in assay buffer (100 mM HEPES pH 7.4, 0.1% CHAPS, 10% Sucrose) for 10 min at 37 °C.
as §1

Caco-2 monolayer = Caco-2 monolayer permeability screen; conditions: 10 µM, 2 h
Experimental: (§3) Supplementary Table 3: Caco-2 permeability and BBB-PAMPA permeability
(§4) For CaCo-2 permeability assay, cells were incubated with 10 µM of these reagents in
(§5) buffers for 2 h, and the receiver side buffer is removed for analysis by LC/MS/MS. Efflux […]
(§6) LLOQ: Lower Limit of Quantification; Papp: apparent permeability.

[1] = molecular target: T4, δ-secretase in Pala cells (Homo sapiens, UniProt Q99538); assay: δ-secretase inhibition in intact Pala cells
T4 sequence (Q99538 18-433): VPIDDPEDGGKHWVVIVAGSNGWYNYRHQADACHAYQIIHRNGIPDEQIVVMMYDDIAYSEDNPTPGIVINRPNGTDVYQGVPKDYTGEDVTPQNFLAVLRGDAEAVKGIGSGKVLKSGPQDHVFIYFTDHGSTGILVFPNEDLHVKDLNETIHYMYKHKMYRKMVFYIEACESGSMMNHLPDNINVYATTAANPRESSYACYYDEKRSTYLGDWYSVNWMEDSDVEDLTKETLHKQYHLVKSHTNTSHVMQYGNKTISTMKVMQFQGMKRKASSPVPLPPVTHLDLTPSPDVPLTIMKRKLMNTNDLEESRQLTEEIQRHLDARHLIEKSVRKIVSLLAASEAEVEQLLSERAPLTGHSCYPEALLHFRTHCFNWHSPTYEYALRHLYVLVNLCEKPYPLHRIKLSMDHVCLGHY
Experimental: Cells were collected, washed twice with PBS and lysed in Lysis Buffer (20 mM citric acid, 60 mM disodium hydrogen orthophosphate, 1 mM EDTA, 0.1% CHAPS, pH 5.8). […] Data were analysed with GraFit version 5.0.11 software package.
δ-secretaseactivity assay.

CYP2C19 = CYP2C19 (Homo sapiens, UniProt P33261); assay: CYP inhibition screening in microsomes; conditions: pH 7.4
Chain of CYP2C19 (P33261 whole entry): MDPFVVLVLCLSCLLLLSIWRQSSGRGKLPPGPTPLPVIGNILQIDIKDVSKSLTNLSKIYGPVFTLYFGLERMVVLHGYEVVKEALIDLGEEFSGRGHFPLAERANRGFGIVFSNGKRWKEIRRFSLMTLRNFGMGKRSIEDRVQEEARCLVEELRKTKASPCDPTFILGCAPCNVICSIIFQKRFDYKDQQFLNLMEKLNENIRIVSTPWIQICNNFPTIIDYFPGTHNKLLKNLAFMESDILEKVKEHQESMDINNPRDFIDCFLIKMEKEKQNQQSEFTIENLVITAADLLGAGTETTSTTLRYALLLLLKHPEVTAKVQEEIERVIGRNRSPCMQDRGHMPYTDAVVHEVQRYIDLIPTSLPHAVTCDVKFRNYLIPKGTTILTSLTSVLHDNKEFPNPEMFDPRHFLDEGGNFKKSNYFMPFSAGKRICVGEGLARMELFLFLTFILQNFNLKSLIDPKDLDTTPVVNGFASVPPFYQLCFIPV

δ-secretase [2] = molecular target: T5, δ-secretase (Homo sapiens, UniProt Q99538); assay: IC50 assay with purified recombinant δ-secretase (AEP), substrate Cbz-Ala-Ala-Asn-AMC; type: biochemical; conditions: purified recombinant enzyme; mean±s.d.; read-out: IC50 AEP (δ-secretase)
T5 construct: tested with purified active δ-secretase, IC50 values for the top 8 candidates were calculated; purchased Sino Biological (Beijing, China)
T5 sequence (Q99538 18-323 limits assumed): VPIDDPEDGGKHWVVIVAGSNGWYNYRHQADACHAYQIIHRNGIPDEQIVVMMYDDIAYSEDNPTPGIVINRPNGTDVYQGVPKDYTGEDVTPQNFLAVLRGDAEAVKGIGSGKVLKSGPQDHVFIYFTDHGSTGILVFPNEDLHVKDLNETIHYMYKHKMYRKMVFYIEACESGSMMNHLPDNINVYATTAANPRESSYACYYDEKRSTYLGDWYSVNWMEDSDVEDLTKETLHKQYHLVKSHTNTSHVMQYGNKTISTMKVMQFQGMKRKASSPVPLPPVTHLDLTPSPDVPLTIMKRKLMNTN
Experimental: δ-secretase – 50 nM enzyme was pre-incubated with inhibitor in assay buffer (50 mM Sodium Citrate pH 5.5, 0.1% CHAPS, 60 mM Na2HPO4, 1 mM EDTA) for 10 min at 37 °C. The reaction was initiated on addition of 10 μM Cbz-Ala-Ala-Asn-AMC (Bachem).
as §1

cathepsin-L = cathepsin-L (Homo sapiens, UniProt P07711); assay: IC50 assay with cathepsin-L; type: biochemical; conditions: for IC50: mean±s.d.
Chain of cathepsin-L (P07711 114-333, species assumed): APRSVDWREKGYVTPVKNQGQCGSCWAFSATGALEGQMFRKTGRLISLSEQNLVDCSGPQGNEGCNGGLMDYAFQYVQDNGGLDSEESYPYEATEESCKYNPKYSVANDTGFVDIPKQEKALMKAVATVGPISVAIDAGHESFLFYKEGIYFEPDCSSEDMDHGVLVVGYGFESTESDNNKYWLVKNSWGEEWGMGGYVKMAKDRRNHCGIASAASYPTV
Experimental: Cathepsin-L – 100 nM enzyme was pre-incubated with inhibitor in assay buffer (100 mM Sodium Acetate pH 5.5, 1 mM EDTA) for 10 min at 37 °C. The reaction was initiated on addition of 25 μM substrate (D-Val-Leu-Lys-AMC (Bachem).
as §1

CYP3A = assay: CYP inhibition screening in microsomes; conditions: human, pH 7.4, probe testosterone
caspase-3 = molecular target: T6, caspase-3 (Homo sapiens, UniProt P42574); assay: IC50 assay with recombinant caspase-3; type: biochemical; conditions: for IC50: mean±s.d.
T6 construct: purchased Millipore (Billerica, MA)
T6 sequence (P42574 29-175 limits assumed): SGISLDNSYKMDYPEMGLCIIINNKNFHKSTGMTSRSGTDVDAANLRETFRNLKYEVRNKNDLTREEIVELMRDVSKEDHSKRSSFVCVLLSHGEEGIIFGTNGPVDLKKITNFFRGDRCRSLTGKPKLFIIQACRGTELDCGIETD
T6 sequence (P42574 176-277 limits assumed): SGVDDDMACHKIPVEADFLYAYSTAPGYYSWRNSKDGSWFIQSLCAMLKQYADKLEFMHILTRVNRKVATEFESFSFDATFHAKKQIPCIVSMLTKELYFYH
Experimental: as §2, §1

CYP3A4 = CYP3A4 (Homo sapiens, UniProt P08684); assay: CYP inhibition screening in microsomes; conditions: pH 7.4, probe midazolam
Chain of CYP3A4 (P08684 whole entry): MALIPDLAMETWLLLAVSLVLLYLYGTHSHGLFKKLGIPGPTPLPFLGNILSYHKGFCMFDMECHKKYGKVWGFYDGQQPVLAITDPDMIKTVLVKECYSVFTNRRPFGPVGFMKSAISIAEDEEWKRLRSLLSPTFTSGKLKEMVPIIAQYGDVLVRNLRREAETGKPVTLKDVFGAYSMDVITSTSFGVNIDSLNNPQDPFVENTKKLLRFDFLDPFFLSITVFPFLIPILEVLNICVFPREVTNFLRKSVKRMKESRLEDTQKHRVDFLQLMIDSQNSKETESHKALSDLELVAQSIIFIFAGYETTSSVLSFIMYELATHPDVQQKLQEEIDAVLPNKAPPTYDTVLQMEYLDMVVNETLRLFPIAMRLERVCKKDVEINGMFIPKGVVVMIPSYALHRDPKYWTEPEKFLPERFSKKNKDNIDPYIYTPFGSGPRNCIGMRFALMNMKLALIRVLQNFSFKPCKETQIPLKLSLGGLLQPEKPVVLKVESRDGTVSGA

[3] = Caco-2 monolayer permeability screen; conditions: human, Caco-2
Experimental: as §3, §4, §5, §6

δ-secretase [4] = molecular target: T5, δ-secretase; assay: DTT and L-cysteine reversibility of δ-secretase inhibition; type: biochemical; conditions: 10 mM DTT or L-cysteine, inhibitor at its IC50
HepG2 cells = assay: COMET assay and micronucleus assay in HepG2 cells; type: cell-based, human; conditions: 50 μM, 24 h
Experimental: Human hepatocellular carcinoma HepG2 cells were used to determine the genotoxicity of the compounds. The Comet Assay (single cell gel electrophoresis) was performed according to the protocol provided in the Trevigen Kit (4250-050-K). Briefly, cells were pre-treated for 24 h with vehicle control or 50 μM compounds. Cells were harvested, embedded in low-melt agarose and submerged in Lysis Buffer for 45 min at 4 °C. After incubation in Alkaline Unwinding Solution (300 mM NaOH, 1 mM EDTA) for 20 min, the cells were subjected to electrophoresis in Alkaline Unwinding Solution at 300 mA for 30 min. Slides were washed with 70% ethanol, dried and stained with SYBR Green for 30 min at room temperature. Nicked DNA was measured as percentage of tail DNA. One hundred comets were scored for each sample[39].
HepG2 cells were treated with vehicle or 50 μM compound for 24 h. Cells were washed with PBS, followed byincubation at a ratio of 1:19 in a hypotonic solution (75 mM KCl/0.9% NaCl) for 10 min at 37 °C. Next, the cells were fixed with methanol:glacial acetic acid (3:1) for 15 min at 37 °C, then rinsed and dried. Cells were stained with DAPI (2 μg ml^−1) for 30 min in the dark at room temperature, rinsed with water, dried and mounted with glycerol. One thousand cells per dish were analysed for each experiment; three independent experiments were performed.

## CCN(CC)c1ccc(CN2CCc3nc(C)[nH]c(=O)c3C2)c(OC)c1 [compound 64]
CYP1A2
  inhibition at 10 min, 3 µM: 23.7%
  inhibition at 10 min, 10 µM: 22.2%
CYP2C9
  inhibition at 10 min, 3 µM: 4.6%
  inhibition at 10 min, 10 µM: 7.9%
cathepsin-S
  selectivity for δ-secretase compared to cathepsin-S: over 40 fold
  IC50: > 100 µM
CYP2D6
  inhibition at 10 min, 3 µM: 34.6%
  inhibition at 10 min, 10 µM: 58.3%
caspase-8
  selectivity for δ-secretase compared to caspase-8: over 40 fold
  IC50: > 100 µM
Caco-2 monolayer
  A->B Papp: < LLOQ
  B->A Papp: < LLOQ
[1]
  IC50: 0.29 ± 0.21 µM
CYP2C19
  inhibition at 10 min, 3 µM: 31.6%
  inhibition at 10 min, 10 µM: 20.4%
δ-secretase [2]
  IC50: 2.37 µM
cathepsin-L
  selectivity for δ-secretase compared to cathepsin-L: over 40 fold
  IC50: > 100 µM
CYP3A
  inhibition at 10 min, 3 µM: 1.5%
  inhibition at 10 min, 10 µM: -0.1%
caspase-3
  selectivity for δ-secretase compared to caspase-3: about 6 fold
  IC50: 15.4 ± 7.04 µM
CYP3A4
  inhibition at 10 min, 3 µM: 0.6%
  inhibition at 10 min, 10 µM: 10.1%

## CNC(=C[N+](=O)[O-])NCCSCc1ccc(CN(C)C)o1 [Ranitidine, reference compound]
[3]
  Papp A→B at 2 h, 10 µM: 0.8 ×10⁻⁶ cm/s

## N#CSc1cnc(N)s1 [compound 10]
δ-secretase [4]
  recovery of δ-secretase activity on addition of reducing agents: regained a substantial amount of activity
cathepsin-S
  IC50: > 200 µM
caspase-8
  IC50: > 200 µM
[1]
  IC50: 7.86 ± 5.67 µM
[1]; intact cells, 2 h incubation, mean±s.d.
  IC50 towards δ-secretase in Pala cells: slightly larger IC50 values
δ-secretase [2]
  IC50: 0.71 ± 0.05 µM
cathepsin-L
  IC50: 3.79 ± 0.29 µM
caspase-3
  IC50: 44.6 ± 5.01 µM

## CN(C)c1ccc(N2C(=O)C=CC2=O)cc1 [compound 22]
cathepsin-S
  IC50: > 100 µM
caspase-8
  IC50: > 100 µM
δ-secretase [2]
  IC50: 0.21 ± 0.01 µM
cathepsin-L
  IC50: > 100 µM
caspase-3
  IC50: > 100 µM
HepG2 cells
  genotoxicity (COMET and micronucleus assay): show genotoxicity
